# Measured values as given in ChEMBL document CHEMBL3808341, “Natural nitric oxide (NO) inhibitors from Chloranthus japonicus” (Bioorg Med Chem Lett, 2016).
# Tested on: RAW264.7
# Assay: Inhibition of LPS-induced NO production in mouse RAW264.7 cells at 50 uM after 24 hrs by Griess assay
# Assay type: functional
# Conditions: RAW264.7, 24 h
row,Structure (SMILES),inhibition at 50 µM [%]
1,C=C1[C@H]2C[C@H]2[C@]2(C)[C@@H]3C[C@@]4(OO)C5=C(/C(=C(\C)C(=O)OC)C(=O)[C@H](O)[C@@]5(C)[C@@H]5C[C@@H]54)[C@@]34OC(=O)C(C)=C4C[C@@H]12,< 50
2,C=C1[C@H]2C[C@H]2[C@]2(C)[C@@H]3C[C@@]4(O)C5=C(C6=C(C)C(=O)O[C@]6(OC)[C@H](O)[C@@]5(C)[C@@H]5C[C@@H]54)[C@@]34OC(=O)C(C)=C4C[C@@H]12,< 50
3,C=C1[C@H]2C[C@H]2[C@@]2(C)[C@H]1[C@@H](OC(C)=O)C1=C(C)C(=O)O[C@@]13C1=C4[C@](C)([C@@H]5C[C@@H]5[C@@]4(O)C[C@H]32)[C@@H](O)C(=O)/C1=C(/C)C(=O)OC,< 50
4,C=C1[C@H]2C[C@H]2[C@]2(C)[C@@H]3C[C@@]4(O)C5=C(C6=C(C)C(=O)O[C@]6(O)[C@H](O)[C@@]5(C)[C@@H]5C[C@@H]54)[C@@]34OC(=O)C(C)=C4C[C@@H]12,< 50

# Tested on: RAW264.7
# Assay: Inhibition of LPS-induced NO production in mouse RAW264.7 cells after 24 hrs by Griess assay
# Assay type: functional, cell-based
# Conditions: RAW264.7, 24 h
row,Structure (SMILES),IC50 [µM]
1,C=C1[C@H]2C[C@H]2[C@]2(C)[C@@H]3CC4=C5[C@H](C(C(C)C(=O)OC)=C(O)C(=O)[C@@]5(C)[C@@H]5C[C@H]45)[C@@]34OC(=O)C(C)=C4C[C@@H]12 (some centres not stated),26.3
2,C=C1[C@H]2C[C@H]2[C@]2(C)[C@@H]3CC4=C5[C@H](/C(=C(/C)C(=O)OC)C(=O)[C@H](O)[C@@]5(C)[C@@H]5C[C@H]45)[C@@]34OC(=O)C(C)=C4C[C@@H]12,26.5
3,C/C=C(\C)C(=O)OC[C@]1(O)[C@H]2C[C@H]2[C@]2(C)[C@@H]3CC4=C5[C@H](/C(=C(\C)C(=O)OC)C(=O)[C@H](O)[C@@]5(C)[C@@H]5C[C@H]45)[C@@]34OC(=O)C(COC(=O)CCC(=O)O)=C4C[C@@H]12,11.6
4,CO[C@]12OC(=O)C(C)=C1C1=C3[C@](C)([C@@H]4C[C@@H]4[C@@]3(O)C[C@@H]3[C@]14OC(=O)C1=C4C[C@H]4[C@](O)(COC(=O)/C(C)=C/COC(=O)CCC(=O)OC1)[C@H]1C[C@H]1[C@]34C)[C@H]2O,43.2
5,C=C1[C@H]2C[C@H]2[C@]2(C)[C@@H]3[C@@H](O)C4=C5[C@H](/C(=C(\C)C(=O)OC)C(=O)[C@H](O)[C@@]5(C)[C@@H]5C[C@H]45)[C@@]34OC(=O)C(C)=C4C[C@@H]12,46.5
6,COC(=O)/C(C)=C1\C(=O)[C@H](O)[C@]2(C)C3=C(C[C@@H]4[C@]5(OC(=O)C6=C5C[C@H]5[C@](O)(COC(=O)/C=C(\C)COC(=O)CCC(=O)OC6)[C@H]6C[C@H]6[C@]45C)[C@H]31)[C@H]1C[C@H]12 [SHIZUKAOL F],21
7,O=c1c(O)c(-c2ccc(O)c(O)c2)oc2cc(O)cc(O)c12 [QUERCETIN],15.9
8,C=C1[C@H]2C[C@H]2[C@]2(C)[C@@H]3C[C@@]4(O)C5=C(C6=C(C)C(=O)O[C@]6(OCCCC)[C@H](O)[C@@]5(C)[C@@H]5C[C@@H]54)[C@@]34OC(=O)C(C)=C4C[C@@H]12,39.4
9,C=C1[C@H]2C[C@H]2[C@]2(C)[C@@H]3CC4=C5[C@H](/C(=C(\C)C(=O)OC)C(=O)[C@H](O)[C@@]5(C)[C@@H]5C[C@H]45)[C@@]34OC(=O)C(C)=C4C[C@@H]12,27
10,C=C1[C@H]2C[C@H]2[C@]2(C)[C@@H]3CC4=C5[C@H](/C(=C(\C)C(=O)OC)C(=O)C[C@@]5(C)[C@@H]5C[C@H]45)[C@@]34OC(=O)C(C)=C4C[C@@H]12,24.4
11,COC(=O)/C(C)=C1\C(=O)[C@H](O)[C@]2(C)C3=C(C[C@@H]4[C@]5(OC(=O)C(CO)=C5C[C@H]5[C@H](COC(C)=O)[C@H]6C[C@H]6[C@]45C)[C@H]31)[C@H]1C[C@H]12,6.91
12,COC(=O)/C(C)=C1\C(=O)[C@H](O)[C@]2(C)C3=C(C[C@@H]4[C@]5(OC(=O)C6=C5C[C@H]5[C@](O)(COC(=O)/C(C)=C/COC(=O)CCC(=O)OC6)[C@H]6C[C@H]6[C@]45C)[C@H]31)[C@H]1C[C@H]12 [SHIZUKAOL B],14.8
13,C=C1[C@H]2C[C@H]2[C@@]2(C)[C@H]1[C@@H](OC(C)=O)C1=C(C)C(=O)O[C@@]13[C@@H]1C4=C(C[C@H]32)[C@H]2C[C@H]2[C@]4(C)[C@@H](O)C(=O)/C1=C(/C)C(=O)OC,25.1
